Results reported in ChEMBL document CHEMBL4334494, “Recent advances in the targeting of human DNA ligase I as a potential new strategy for cancer treatment” (Eur J Med Chem, 2019).
Blank lines part the entries; values can stand above or below the molecule they belong to.

What was measured:
[1] = biological target: T1, DNA ligase 1 (Homo sapiens, UniProt P18858); test: Inhibition of human DNA ligase 1 expressed in Escherichia coli BL21 (DE3) cells using nicked DNA as substrate preincubated for 30 mins followed by substrate addition measured after 1 hr
T1 sequence (P18858 whole entry): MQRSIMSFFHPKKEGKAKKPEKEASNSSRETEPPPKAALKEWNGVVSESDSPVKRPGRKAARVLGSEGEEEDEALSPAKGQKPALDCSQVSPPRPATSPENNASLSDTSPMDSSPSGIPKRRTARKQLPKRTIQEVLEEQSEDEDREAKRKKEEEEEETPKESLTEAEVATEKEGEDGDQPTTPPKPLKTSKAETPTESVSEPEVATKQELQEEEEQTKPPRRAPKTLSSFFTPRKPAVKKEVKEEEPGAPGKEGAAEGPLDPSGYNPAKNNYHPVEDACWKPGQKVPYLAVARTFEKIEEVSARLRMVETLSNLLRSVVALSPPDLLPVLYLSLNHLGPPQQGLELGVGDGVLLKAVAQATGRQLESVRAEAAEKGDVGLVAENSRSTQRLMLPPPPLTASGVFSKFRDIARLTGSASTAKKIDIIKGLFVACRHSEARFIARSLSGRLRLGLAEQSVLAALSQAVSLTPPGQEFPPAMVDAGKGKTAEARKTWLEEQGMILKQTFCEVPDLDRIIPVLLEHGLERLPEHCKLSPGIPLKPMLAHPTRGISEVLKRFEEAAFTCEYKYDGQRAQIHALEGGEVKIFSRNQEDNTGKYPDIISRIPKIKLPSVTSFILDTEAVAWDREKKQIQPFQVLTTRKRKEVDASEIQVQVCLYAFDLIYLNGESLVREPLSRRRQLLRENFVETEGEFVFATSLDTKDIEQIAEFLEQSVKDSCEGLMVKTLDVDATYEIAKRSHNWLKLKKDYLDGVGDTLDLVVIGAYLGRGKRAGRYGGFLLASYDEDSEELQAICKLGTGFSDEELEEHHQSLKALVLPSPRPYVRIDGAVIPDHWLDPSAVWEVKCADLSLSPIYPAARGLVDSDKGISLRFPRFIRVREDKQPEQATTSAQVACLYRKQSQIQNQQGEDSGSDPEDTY

[2] = system: HCT-116; test: Antiproliferative activity against human HCT116 cells relative to control; type: functional
[3] = system: MDA-MB-231; test: Antiproliferative activity against human MDA-MB-231 cells at 10 uM after 48 hrs by MTT assay relative to control; type: functional; settings: MDA-MB-231, 48 h
[4] = biological target: T1, DNA ligase 1; test: Inhibition of human DNA ligase 1 at 25 uM using nicked DNA as substrate after 30 mins relative to control
[5] = system: HepG2; test: Antiproliferative activity against human HepG2 cells after 48 hrs by MTT assay; type: functional, cell-based; settings: HepG2, 48 h
[6] = system: HeLa; test: Antiproliferative activity against human HeLa cells after 48 hrs by MTT assay; type: functional, cell-based
[7] = system: 4T1; test: Antiproliferative activity against mouse 4T1 cells after 48 hrs by MTT assay; type: functional, cell-based; settings: 4T1, 48 h
[8] = system: HT-29; test: Antiproliferative activity against human HT-29 cells after 48 hrs by MTT assay; type: functional, cell-based; settings: HT-29, 48 h
[9] = system: HCT-116; test: Antiproliferative activity against human HCT116 cells after 48 hrs by MTT assay; type: functional, cell-based; settings: HCT-116, 48 h
[10] = biological target: T1, DNA ligase 1; test: Inhibition of human DNA ligase 1 expressed in Escherichia coli BL21DE3RP cells at 50 uM using 52-mer DNA/25-mer DNA/27-mer DNA as substrate after 30 mins by Cyanin3 dye-based fluorescence assay relative to control
[11] = system: MDA-MB-231; test: Antiproliferative activity against human MDA-MB-231 cells after 48 hrs by MTT assay; type: functional, cell-based; settings: MDA-MB-231, 48 h
[12] = system: DLD-1; test: Antiproliferative activity against human DLD1 cells after 48 hrs by MTT assay; type: functional, cell-based; settings: DLD-1, 48 h

- IC50 [1]: 14.1 µM
Compound: O=C1Nc2ccc(Cl)cc2/C1=N/Nc1cn[nH]c(=O)c1Cl

- IC50 [1]: 36.4 µM
Compound: O=C1/C(=N\Nc2cn[nH]c(=O)c2Cl)c2cc(Br)ccc2N1c1ccccc1

Compound: COc1ccc(-c2cnc3c(O)nc(O)nc3n2)cc1
- Activity [2]: 70%

- IC50 [1]: 26.5 µM
Compound: O=C1/C(=N\Nc2cn[nH]c(=O)c2Cl)c2ccccc2N1c1ccc(Cl)cc1

- inhibition [4]: < 50%
Compound: COc1cc(/C=C/c2cc(=O)oc3c2ccc2c(OC)cccc23)cc(OC)c1
- inhibition at 10 µM [3]: > 50%

Compound: O=C1/C(=N\Nc2cn[nH]c(=O)c2Cl)c2cc(Br)ccc2N1c1ccc(Cl)cc1
- IC50 [1]: 15.5 to 18.8 µM

- IC50 [1]: 13.9 µM
Compound: O=C1Nc2ccccc2/C1=N/Nc1cn[nH]c(=O)c1Cl

- IC50 [1]: 14.1 µM
Compound: Cc1ccc(N2C(=O)/C(=N\Nc3cn[nH]c(=O)c3Cl)c3ccccc32)cc1

- IC50 [1]: 21.1 µM
Compound: O=C1/C(=N\Nc2cn[nH]c(=O)c2Cl)c2cc(Cl)ccc2N1c1ccc(F)cc1

- inhibition [4]: < 50%
Compound: COc1cccc(OC)c1/C=C/c1cc(=O)oc2c1ccc1ccccc12
- inhibition at 10 µM [3]: > 50%

- IC50 [1]: 14.1 µM
Compound: O=C1/C(=N\Nc2cn[nH]c(=O)c2Cl)c2cc(Cl)ccc2N1c1ccc(Cl)cc1

- IC50 [5]: < 10 µM
- IC50 [6]: < 10 µM
- IC50 [7]: < 10 µM
- IC50 [8]: < 10 µM
- IC50 [9]: < 10 µM
- inhibition [10]: > 75%
- IC50 [11]: < 10 µM
- IC50 [12]: < 10 µM
Compound: Cc1ccccc1/C=C1\CN(C(=S)NC(=O)c2ccccc2)C/C(=C\c2ccccc2C)C1=O

- IC50 [5]: < 10 µM
- IC50 [6]: < 10 µM
- IC50 [7]: < 10 µM
- IC50 [8]: < 10 µM
- IC50 [9]: < 10 µM
- inhibition [10]: > 75%
- IC50 [11]: < 10 µM
- IC50 [12]: < 10 µM
Compound: O=C1/C(=C/c2ccc(F)cc2)CN(C(=S)NC(=O)c2ccccc2)C/C1=C\c1ccc(F)cc1

- IC50 [5]: < 10 µM
- IC50 [6]: < 10 µM
- IC50 [7]: < 10 µM
- IC50 [8]: < 10 µM
- IC50 [9]: < 10 µM
- inhibition [10]: > 75%
- IC50 [11]: < 10 µM
- IC50 [12]: < 10 µM
Compound: O=C1/C(=C/c2ccc(F)cc2)CN(C(=S)NCCc2ccccc2)C/C1=C\c1ccc(F)cc1

- IC50 [5]: < 10 µM
- IC50 [6]: < 10 µM
- IC50 [7]: < 10 µM
- IC50 [8]: < 10 µM
- IC50 [9]: < 10 µM
- inhibition [10]: > 75%
- IC50 [11]: < 10 µM
- IC50 [12]: < 10 µM
Compound: Cc1ccc(/C=C2\CN(C(=S)NCCc3ccccc3)C/C(=C\c3ccc(C)cc3)C2=O)cc1
